Results as given in ChEMBL document CHEMBL2440076, “New triarylpyrazoles as broad-spectrum anticancer agents: design, synthesis, and biological evaluation” (Eur J Med Chem, 2013).

Columns and labels:
[1] = system: NCI-H226; experiment: Growth inhibition of human NCI-H226 cells after 48 hrs by sulforhodamine B assay; assay type: functional; settings: NCI-H226, 48 h
[2] = system: HOP-92; experiment: Growth inhibition of human HOP92 cells assessed as cell growth at 10 uM after 48 hrs by sulforhodamine B assay; assay type: functional; settings: HOP-92, 48 h, read-out: Activity
[3] = system: UACC-62; experiment: Growth inhibition of human UACC62 cells after 48 hrs by sulforhodamine B assay; assay type: functional; settings: UACC-62, 48 h
[4] = system: SNB-19; experiment: Growth inhibition of human SNB19 cells after 48 hrs by sulforhodamine B assay; assay type: functional; settings: SNB-19, 48 h
[5] = system: M14; experiment: Growth inhibition of human M14 cells after 48 hrs by sulforhodamine B assay; assay type: functional; settings: M14, 48 h
[6] = system: HCT-15; experiment: Growth inhibition of human HCT15 cells after 48 hrs by sulforhodamine B assay; assay type: functional; settings: HCT-15, 48 h
[7] = system: MOLT-4; experiment: Growth inhibition of human MOLT4 cells assessed as cell growth at 10 uM after 48 hrs by sulforhodamine B assay; assay type: functional; settings: MOLT-4, 48 h, read-out: Activity
[8] = system: HCT-15; experiment: Growth inhibition of human HCT15 cells assessed as cell growth at 10 uM after 48 hrs by sulforhodamine B assay; assay type: functional; settings: HCT-15, 48 h, read-out: Activity
[9] = system: OVCAR-8; experiment: Growth inhibition of human OVCAR8 cells after 48 hrs by sulforhodamine B assay; assay type: functional; settings: OVCAR-8, 48 h
[10] = system: IGROV-1; experiment: Growth inhibition of human IGROV1 cells assessed as cell growth at 10 uM after 48 hrs by sulforhodamine B assay; assay type: functional; settings: IGROV-1, 48 h, read-out: Activity
[11] = system: HOP-62; experiment: Growth inhibition of human HOP62 cells after 48 hrs by sulforhodamine B assay; assay type: functional; settings: HOP-62, 48 h
[12] = system: SR; experiment: Growth inhibition of human SR cells after 48 hrs by sulforhodamine B assay; assay type: functional
[13] = system: ACHN; experiment: Growth inhibition of human ACHN cells after 48 hrs by sulforhodamine B assay; assay type: functional
[14] = system: Malme-3M; experiment: Growth inhibition of human MALME-3M cells after 48 hrs by sulforhodamine B assay; assay type: functional
[15] = system: MCF7; experiment: Growth inhibition of human MCF7 cells assessed as cell growth at 10 uM after 48 hrs by sulforhodamine B assay; assay type: functional; settings: MCF7, 48 h, read-out: Activity
[16] = system: COLO 205; experiment: Growth inhibition of human COLO205 cells after 48 hrs by sulforhodamine B assay; assay type: functional; settings: COLO 205, 48 h
[17] = system: LOX IMVI; experiment: Growth inhibition of human LOXIMVI cells after 48 hrs by sulforhodamine B assay; assay type: functional
[18] = system: NCI-H322M; experiment: Growth inhibition of human NCI-H322M cells assessed as cell growth at 10 uM after 48 hrs by sulforhodamine B assay; assay type: functional; settings: read-out: Activity
[19] = system: OVCAR-4; experiment: Growth inhibition of human OVCAR4 cells after 48 hrs by sulforhodamine B assay; assay type: functional; settings: OVCAR-4, 48 h
[20] = Growth inhibition of human NCI-ADR-RES cells assessed as cell growth at 10 uM after 48 hrs by sulforhodamine B assay; assay type: functional; settings: read-out: Activity
[21] = system: A549; experiment: Growth inhibition of human A549/ATCC cells assessed as cell growth at 10 uM after 48 hrs by sulforhodamine B assay; assay type: functional; settings: A549, 48 h, read-out: Activity
[22] = system: HT-29; experiment: Growth inhibition of human HT-29 cells assessed as cell growth at 10 uM after 48 hrs by sulforhodamine B assay; assay type: functional; settings: HT-29, 48 h, read-out: Activity
[23] = system: SN12C; experiment: Growth inhibition of human SN12C cells after 48 hrs by sulforhodamine B assay; assay type: functional
[24] = system: OVCAR-4; experiment: Growth inhibition of human OVCAR4 cells assessed as cell growth at 10 uM after 48 hrs by sulforhodamine B assay; assay type: functional; settings: OVCAR-4, 48 h, read-out: Activity
[25] = system: SF-539; experiment: Growth inhibition of human SF539 cells assessed as cell growth at 10 uM after 48 hrs by sulforhodamine B assay; assay type: functional; settings: SF-539, 48 h, read-out: Activity
[26] = system: CCRF-CEM; experiment: Growth inhibition of human CCRF-CEM cells assessed as cell growth at 10 uM after 48 hrs by sulforhodamine B assay; assay type: functional; settings: read-out: Activity
[27] = system: Malme-3M; experiment: Growth inhibition of human MALME-3M cells assessed as cell growth at 10 uM after 48 hrs by sulforhodamine B assay; assay type: functional; settings: read-out: Activity
[28] = system: HCT-116; experiment: Growth inhibition of human HCT116 cells after 48 hrs by sulforhodamine B assay; assay type: functional; settings: HCT-116, 48 h
[29] = system: NCI-H226; experiment: Growth inhibition of human NCI-H226 cells assessed as cell growth at 10 uM after 48 hrs by sulforhodamine B assay; assay type: functional; settings: NCI-H226, 48 h, read-out: Activity
[30] = system: A498; experiment: Growth inhibition of human A498 cells after 48 hrs by sulforhodamine B assay; assay type: functional, cell-based; settings: A498, 48 h
[31] = system: HOP-92; experiment: Growth inhibition of human HOP92 cells after 48 hrs by sulforhodamine B assay; assay type: functional, cell-based; settings: HOP-92, 48 h
[32] = system: MDA-MB-435; experiment: Growth inhibition of human MDA-MB-435 cells assessed as cell growth at 10 uM after 48 hrs by sulforhodamine B assay; assay type: functional; settings: MDA-MB-435, 48 h, read-out: Activity
[33] = system: SF-268; experiment: Growth inhibition of human SF268 cells after 48 hrs by sulforhodamine B assay; assay type: functional; settings: SF-268, 48 h
[34] = system: KM12; experiment: Growth inhibition of human KM12 cells assessed as cell growth at 10 uM after 48 hrs by sulforhodamine B assay; assay type: functional; settings: KM12, 48 h, read-out: Activity
[35] = system: LOX IMVI; experiment: Growth inhibition of human LOXIMVI cells assessed as cell growth at 10 uM after 48 hrs by sulforhodamine B assay; assay type: functional; settings: read-out: Activity
[36] = read-out: LC50 (the source's name)

## O=C(Nc1cccc(-n2cc(-c3ccncc3)c(-c3ccc(Cl)c(O)c3)n2)c1)Nc1ccc(Cl)c(C(F)(F)F)c1
[1]
  GI50: 1350 nM
  TGI: > 32500 nM
[1]; [36]
  CC50: > 32500 nM
[2]
  growth at 10 µM: -30.7%
[3]
  GI50: 627 nM
  LC50 (50% lethal concentration): 3160 nM
  TGI: 1450 nM
[4]
  GI50: 1120 nM
  LC50 (concentration killing 50% of cells): > 32500 nM
  TGI: 4860 nM
[5]
  GI50: 886 nM
  LC50 (concentration killing 50% of cells): > 32500 nM
  TGI: 2770 nM
[6]
  GI50: 867 nM
  LC50: > 32500 nM
  TGI: 13800 nM
[7]
  growth at 10 µM: -22.1%
[8]
  growth at 10 µM: 1.04%
[9]
  GI50: 759 nM
  TGI: 2280 nM
[9]; [36]
  CC50: > 32500 nM
[10]
  growth at 10 µM: 10.4%
[11]
  GI50: 1220 nM
  TGI: 7830 nM
[11]; [36]
  CC50: > 32500 nM
[12]
  GI50: 715 nM
  TGI: 2520 nM
[12]; [36]
  CC50: > 32500 nM
[13]
  GI50: 913 nM
  TGI: > 32500 nM
[13]; [36]
  CC50: > 32500 nM
[14]
  GI50: 576 nM
  LC50 (concentration killing 50% of starting cells): 9580 nM
  TGI: 1650 nM
[15]
  growth at 10 µM: -16.6%
[16]
  GI50: 2390 nM
  LC50 (concentration killing 50% of cells): 16100 nM
  TGI: 6750 nM
[17]
  GI50: 554 nM
  LC50: 2390 nM
  TGI: 1150 nM
[18]
  growth at 10 µM: 24.7%
[19]
  GI50: 1200 nM
  LC50 (concentration killing 50% of cells): > 32500 nM
  TGI: > 32500 nM
[20]
  growth at 10 µM: -16.9%
[21]
  growth at 10 µM: -21.3%
[22]
  growth at 10 µM: -6.5%
[23]
  GI50: 1120 nM
  TGI: 17100 nM
[23]; [36]
  CC50: > 32500 nM
[24]
  growth at 10 µM: -3.42%
[25]
  growth at 10 µM: -26.1%
[26]
  growth at 10 µM: -13.8%
[27]
  growth at 10 µM: -16.6%
[28]
  GI50: 998 nM
  TGI: 3940 nM
[28]; [36]
  CC50: > 32500 nM
[29]
  growth at 10 µM: 3.43%
[30]
  GI50: 1400 nM
  IC50: 1400 nM
  TGI: 6900 nM
[30]; [36]
  CC50: > 32500 nM
[31]
  GI50: 376 nM
  IC50: 380 nM
  LC50: 13500 nM
  TGI: 1460 nM
[32]
  growth at 10 µM: -31.3%
[33]
  GI50: 1060 nM
  TGI: 6980 nM
[33]; [36]
  CC50: > 32500 nM
[34]
  growth at 10 µM: -27.3%
[35]
  growth at 10 µM: -75.8%
